Experimental data as given in PubChem BioAssay AID248 (DTP/NCI, 2004).
Several values for one entry are separate records, joined by “and”; a condition that tells them apart may be missing. Identical values can stand only once. Inconclusive results and toxic doses are left out. Cut-off read from the data, not from the text of the source: active = T/C of 150% or more; inactive = T/C below 125%.

Tested on: L1210 leukemia ip in BDF1 mice, survival T/C
Test: NCI In Vivo Anticancer Drug Screen. Data for tumor model L1210 Leukemia (intraperitoneal) in B6D2F1 (BDF1) mice
Settings: endpoint: mean survival time, higher = longer survival
Method in brief: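 Transplantable tumor model; survival measured in treated vs vehicle control mice. Value = treated/control.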

[1] = dose: 100.0 mg/kg/injection, schedule: Q01DX009 (ip), vehicle: Klucel (hydroxypropylcellulose) (HPC)
[2] = dose: 100.0 mg/kg/injection, schedule: Q04DX003 (ip), vehicle: Klucel (hydroxypropylcellulose) (HPC)
[3] = dose: 200.0 mg/kg/injection, schedule: Q01DX009 (ip), vehicle: Klucel (hydroxypropylcellulose) (HPC)
[4] = dose: 200.0 mg/kg/injection, schedule: Q04DX003 (ip), vehicle: Klucel (hydroxypropylcellulose) (HPC)
[5] = dose: 400.0 mg/kg/injection, schedule: Q01DX009 (ip), vehicle: Klucel (hydroxypropylcellulose) (HPC)
[6] = dose: 400.0 mg/kg/injection, schedule: Q04DX003 (ip), vehicle: Klucel (hydroxypropylcellulose) (HPC)
[7] = dose: 100.0 mg/kg/injection, schedule: Q04DX003 (ip), vehicle: saline with Tween-80
[8] = dose: 200.0 mg/kg/injection, schedule: Q04DX003 (ip), vehicle: saline with Tween-80
[9] = dose: 400.0 mg/kg/injection, schedule: Q04DX003 (ip), vehicle: saline with Tween-80
[10] = dose: 100.0 mg/kg/injection, schedule: Q01DX001 (ip), vehicle: carboxymethylcellulose (CMC)
[11] = dose: 200.0 mg/kg/injection, schedule: Q01DX001 (ip), vehicle: carboxymethylcellulose (CMC)
[12] = dose: 400.0 mg/kg/injection, schedule: Q01DX001 (ip), vehicle: carboxymethylcellulose (CMC)
[13] = dose: 100.0 mg/kg/injection, schedule: Q01DX009 (ip), vehicle: saline
[14] = dose: 100.0 mg/kg/injection, schedule: Q04DX003 (ip), vehicle: acetone
[15] = dose: 100.0 mg/kg/injection, schedule: Q04DX003 (ip), vehicle: saline
[16] = dose: 200.0 mg/kg/injection, schedule: Q04DX003 (ip), vehicle: saline
[17] = dose: 400.0 mg/kg/injection, schedule: Q04DX003 (ip), vehicle: saline
[18] = dose: 100.0 mg/kg/injection, schedule: Q04DX002 (ip), vehicle: saline with Tween-80
[19] = dose: 200.0 mg/kg/injection, schedule: Q04DX002 (ip), vehicle: saline with Tween-80

Measured: T/C

COc1ccc(NC(=O)c2cccc(C(=O)Nc3ccc(OC)cc3)c2)cc1
inactive: [1] 88 % of control | [2] 93 % of control | [3] 97 % of control | [4] 88 % of control | [5] 97 % of control | [6] 93 % of control

Oc1ccccc1N=CC1CCCCC1
inactive: [7] 87 % of control | [8] 88 % of control | [9] 92 % of control

O=c1[nH]c(C(F)(F)F)nc2[nH]ncc12
inactive: dose: 29.0 mg/kg/injection, schedule: Q01DX Z (ip), vehicle: methylcellulose (MC) 102 % of control | dose: 45.0 mg/kg/injection, schedule: Q01DX Z (ip), vehicle: methylcellulose (MC) 106 % of control | dose: 67.0 mg/kg/injection, schedule: Q01DX Z (ip), vehicle: methylcellulose (MC) 108 % of control | dose: 100.0 mg/kg/injection, schedule: Q01DX Z (ip), vehicle: methylcellulose (MC) 93 % of control

CCOC(=O)c1[nH]c(=S)n(-c2ccccc2)c1C(=O)OCC
inactive: dose: 100.0 mg/kg/injection, schedule: Q01DX001 (ip), vehicle: other 97 % of control | dose: 100.0 mg/kg/injection, schedule: Q01DX009 (ip), vehicle: other 94 % of control and 95 % of control | dose: 100.0 mg/kg/injection, schedule: Q04DX002 (ip), vehicle: other 93 % of control and 87 % of control | dose: 200.0 mg/kg/injection, schedule: Q01DX001 (ip), vehicle: other 108 % of control | dose: 200.0 mg/kg/injection, schedule: Q01DX009 (ip), vehicle: other 94 % of control and 115 % of control | dose: 200.0 mg/kg/injection, schedule: Q04DX002 (ip), vehicle: other 96 % of control and 97 % of control | dose: 400.0 mg/kg/injection, schedule: Q01DX001 (ip), vehicle: other 103 % of control | dose: 400.0 mg/kg/injection, schedule: Q01DX009 (ip), vehicle: other 112 % of control and 90 % of control | dose: 400.0 mg/kg/injection, schedule: Q04DX002 (ip), vehicle: other 93 % of control and 114 % of control

Cc1cc(C)c2ccc(SC#N)c-2c(C)c1
inactive: [10] 106 % of control | [11] 95 % of control | [12] 101 % of control

NCC(O)C(F)(F)F (centres undefined)
inactive: [10] 109 % of control | [11] 97 % of control | [12] 118 % of control

CCCCCCCCCCCCCCCCCC(=O)Nc1ccc(OC(=O)NC)cc1
inactive: [1] 93 % of control | [3] 88 % of control

c1cc(OCCN2CC2)ccn1
inactive: dose: 12.5 mg/kg/injection, schedule: Q01DX001 (ip), vehicle: carboxymethylcellulose (CMC) 98 % of control | dose: 25.0 mg/kg/injection, schedule: Q01DX001 (ip), vehicle: carboxymethylcellulose (CMC) 108 % of control

OCCCC1CCCCN1 (centres undefined)
inactive: dose: 25.0 mg/kg/injection, schedule: Q01DX009 (ip), vehicle: saline 100 % of control | dose: 50.0 mg/kg/injection, schedule: Q01DX009 (ip), vehicle: saline 96 % of control | [13] 88 % of control | [14] 103 % of control

CC(C)OC(=O)C(NC=O)C(C)(C)S (centres undefined)
inactive: [7] 93 % of control | [8] 102 % of control | [9] 97 % of control

O=c1[nH]cc(-c2ccccc2)c(=O)[nH]1
inactive: [13] 98 % of control | [15] 95 % of control | dose: 200.0 mg/kg/injection, schedule: Q01DX009 (ip), vehicle: saline 104 % of control | [16] 95 % of control | dose: 400.0 mg/kg/injection, schedule: Q01DX009 (ip), vehicle: saline 104 % of control | [17] 101 % of control

CC1CN=C(CCc2ccc(NC(=O)c3ccc(C(=O)Nc4ccc(CCC5=NCC(C)N5)cc4)cc3)cc2)N1 (centres undefined)
inactive: dose: 240.0 mg/kg/injection, schedule: Q01DX Z (ip), vehicle: saline 97 % of control | dose: 480.0 mg/kg/injection, schedule: Q01DX Z (ip), vehicle: saline 92 % of control

CCc1cccc[n+]1CC(=O)c1ccccc1
inactive: dose: 6.25 mg/kg/injection, schedule: Q01DX009 (ip), vehicle: saline 95 % of control | dose: 12.5 mg/kg/injection, schedule: Q01DX009 (ip), vehicle: saline 98 % of control | dose: 25.0 mg/kg/injection, schedule: Q04DX003 (ip), vehicle: saline 96 % of control

CC(CN=Cc1ccc(N(CCCl)CCCl)cc1)N=Cc1ccc(N(CCCl)CCCl)cc1 (centres undefined)
inactive: dose: 50.0 mg/kg/injection, schedule: Q01DX001 (ip), vehicle: carboxymethylcellulose (CMC) 109 % of control | [10] 111 % of control | [11] 109 % of control | [12] 111 % of control

CCOC(=O)C1OC1C1c2cccc3cccc(c23)C1C1OC1C(=O)OCC (centres undefined)
inactive: dose: 100.0 mg/kg/injection, schedule: Q01DX001 (ip), vehicle: saline 107 % of control | dose: 200.0 mg/kg/injection, schedule: Q01DX001 (ip), vehicle: saline 94 % of control | dose: 400.0 mg/kg/injection, schedule: Q01DX001 (ip), vehicle: saline 102 % of control

O=C(O)c1c(Br)c(Br)c(Br)c(Br)c1C(=O)Nc1cccc2ccccc12
inactive: [18] 97 % of control | [19] 97 % of control | dose: 400.0 mg/kg/injection, schedule: Q04DX002 (ip), vehicle: saline with Tween-80 94 % of control

COc1ccc2oc(C(=O)O)cc2c1
inactive: [14] 101 % of control | dose: 200.0 mg/kg/injection, schedule: Q04DX003 (ip), vehicle: acetone 101 % of control | dose: 400.0 mg/kg/injection, schedule: Q04DX003 (ip), vehicle: acetone 101 % of control

CCCCCCCCCCCCCCCCCC(=O)N/N=C/c1ccc(OCC)c(OC)c1
inactive: [1] 86 % of control | [3] 91 % of control | [5] 88 % of control

Nc1nc(-c2ccccc2)c(CCCCc2ccccc2)c(=O)[nH]1
inactive: dose: 50.0 mg/kg/injection, schedule: Q01DX Z (ip), vehicle: carboxymethylcellulose (CMC) 97 % of control | dose: 200.0 mg/kg/injection, schedule: Q01DX Z (ip), vehicle: carboxymethylcellulose (CMC) 89 % of control

Cc1ccc(C)c([N+](=O)[O-])c1C(=O)O
inactive: [10] 104 % of control | [11] 96 % of control | [12] 109 % of control

CCOP(=O)(OCC)OC(=C(Cl)Cl)C(Cl)(Cl)Cl
inactive: [18] 115 % of control | [19] 102 % of control

CCOC(=O)C(CC(=O)O)=C1c2ccccc2-c2ccccc21
inactive: dose: 100.0 mg/kg/injection, schedule: Q01DX001 (ip), vehicle: Klucel (hydroxypropylcellulose) (HPC) 100 % of control | [1] 95 % of control and 102 % of control | dose: 100.0 mg/kg/injection, schedule: Q04DX002 (ip), vehicle: Klucel (hydroxypropylcellulose) (HPC) 95 % of control and 102 % of control | dose: 200.0 mg/kg/injection, schedule: Q01DX001 (ip), vehicle: Klucel (hydroxypropylcellulose) (HPC) 94 % of control | [3] 95 % of control and 96 % of control | dose: 200.0 mg/kg/injection, schedule: Q04DX002 (ip), vehicle: Klucel (hydroxypropylcellulose) (HPC) 96 % of control and 98 % of control

O=C(O)C1CSC2(CCCCC2)N1 (centres undefined)
inactive: [15] 93 % of control | [16] 98 % of control | [17] 89 % of control

C=C(C)CSc1ncnc2nc[nH]c12
inactive: dose: 52.0 mg/kg/injection, schedule: Q01DX Z (ip), vehicle: other 112 % of control | dose: 80.0 mg/kg/injection, schedule: Q01DX Z (ip), vehicle: other 112 % of control | dose: 120.0 mg/kg/injection, schedule: Q01DX Z (ip), vehicle: other 124 % of control

N#CC(O)Cc1ccccc1 (centres undefined)
inactive: dose: 2.5 mg/kg/injection, schedule: Q01DX009 (ip), vehicle: saline 95 % of control | dose: 5.0 mg/kg/injection, schedule: Q01DX009 (ip), vehicle: saline 90 % of control | dose: 10.0 mg/kg/injection, schedule: Q01DX009 (ip), vehicle: saline 97 % of control

O=C(O)CCCC(=O)NC1CC2c3ccccc3C1c1ccccc12 (centres undefined)
inactive: dose: 100.0 mg/kg/injection, schedule: Q01DX009 (ip), vehicle: saline sonified 101 % of control | [2] 94 % of control | dose: 200.0 mg/kg/injection, schedule: Q01DX009 (ip), vehicle: saline sonified 100 % of control | [4] 96 % of control | dose: 400.0 mg/kg/injection, schedule: Q01DX009 (ip), vehicle: saline sonified 100 % of control | [6] 91 % of control
